Experimental data reported in patent US20020115728A1, “Compositions and methods for treating cardiovascular disorders” (priority 2000, published 2002).
Marks after values point to notes of the source that are not given here.

Experiments:
Type in all cases: in vivo
[1] = system: aortas of apoE−/− mice; assay: Aortic lipids, oxidised lipids and antioxidants by HPLC of aortic homogenates; details: 24 weeks
Procedure: (§1) Male C57BL/6J mice, homozygous for the disrupted apoE gene (apoE−/−) were fed standard chow (Lab-Feed, Sydney, Australia) until aged 10 weeks. […] The high fat diet (control and probucol-supplemented) was prepared, according to the specifications of the Harlan Teklad diet TD88137.
After bleeding, mice were gravity-perfused for 5 min with DPBS containing 20 μM BHT and 1 mM EDTA (Buffer A) and aortas removed as described in Letters J M, et al (1999). Briefly, hearts, ascending and descending aortas (past the femoral junction) were excised and carefully cleaned. […] Once cleaned, aortas were separated from the heart taking care to include all aortic material while avoiding heart tissue. To obtain sufficient material for HPLC analysis (i.e., 30-40 mg wet weight tissue) it was necessary to pool 7-8 aortas. Separate pools of aortas were prepared for both groups and then immediately frozen in Buffer A and stored at −80° C. until analyses.
Pooled aortas were snap frozen in liquid nitrogen, pulverised, resuspended in Buffer A, homogenised and then either treated with metaphosphoric acid (for ascorbate) or extracted and the hexane fraction analysed for lipid-soluble antioxidants, cholesterol (C), choleseteryl esters (CE), lipid hydroperoxides (LOOH) and cholesteryl ester hydroxides (CE-OH) by HPLC as described in Methods Enzymol. 1994;233:469-489. LOOH and CE-OH were measured as markers of lipoprotein lipid oxidation, as they are the primary and major oxidation products formed when lipoproteins from apoE−/− mice undergo oxidation. […] All compounds were quantified by peak area comparison with authentic standards, and protein determined.
(§2) ApoE−/− mice were fed either a control or probucol-supplemented diet for 24 weeks before aortas and plasma were analysed.

[2] = system: apoE−/− mice; assay: Plasma lipids and antioxidants; details: 1% probucol, 24 weeks
Procedure: as §1
(§3) Plasma was obtained from control and probucol mice and aliquots frozen for subsequent determination of lipids. Separate aliquots were acidified with metaphosphoric acid (5%) to stabilize vitamin C prior to freezing and storage at −80° C. The remainder was pooled appropriately and used for ex vivo oxidation initiated by the peroxyl radical generator AAPH and lipoprotein separation by FPLC with UV280nm detection, as described in J Lipid Res. 1999;40:1104-1112.
Lipid-soluble antioxidants and lipids were quantified by HPLC as described in FASEB J. 1999;13:667-675. For ascorbate analysis, frozen acidified samples were thawed, diluted with DPBS to adjust the pH to 7.4 and then immediately subjected to HPLC. Plasma triglycerides were determined enzymatically (Boehringer, Mannheim, Germany).
as §2

[3] = system: plasma lipoproteins of apoE−/− mice; assay: Lipids and antioxidants in lipoprotein fractions (size exclusion FPLC of pooled plasma); parameters: VLDL C / VLDL C18:2 / VLDL -TOH / VLDL Total CoQ / LDL C / LDL C18:2 / LDL -TOH / LDL Total CoQ / HDL C / HDL C18:2 / HDL -TOH / HDL Total CoQ: unit not given here; details: 24 weeks
Procedure: as §3
Two consecutive separations each employing 300 μL undiluted plasma were carried out. The corresponding eluents from both injections were collected, pooled according to fractions corresponding to very low-density lipoprotein (VLDL), LDL, and HDL plus mouse serum albumin (see FIG. 3) and then extracted and analysed for lipids and antioxidants.

[4] = system: atherosclerosis in apoE−/−;LDLr−/− mice; assay: Evaluation of atherosclerosis (intima volume, descending thoracic aorta); details: bisphenol for 14 weeks
Procedure: Aortic lesions were assessed in segments centered around the third pair of intercostal artery branches in the descending thoracic aorta. Briefly, the fixed aortas were dehydrated in ethanol, cleared with xylene and embedded in paraffin. Serial sections (10 in total; each 2-3 μm thick and 100 μm apart) were cut and stained using Weigerts hematoxylin-van Gieson. Aortic thickening was assessed as the total volume of intima in the segment investigated in bisphenol-treated versus control samples.
Aortic volumes were determined by planimetry, using a Lucivid device (MicroBrightField, Colchester, Vermont, […]) attached to a Leitz DRM microscope that allowed the superposition of a computer monitor onto the cross sectional image.

[5] = lipid-standardised oxidised lipids, 1% probucol

## CC(C)(Sc1cc(C(C)(C)C)c(O)c(C(C)(C)C)c1)Sc1cc(C(C)(C)C)c(O)c(C(C)(C)C)c1 [Probucol, probucol]
[1]; 1% probucol
  effect on aortic content of lipid standardised oxidized lipids: did not affect
[1]; 1% probucol, aorta
  Aorta Ascorbate: 322 ± 320 pmol/mgp
  Aorta C18:2: 12 ± 6 nmol/mgp
  Aorta C20:4: 4.0 ± 2 nmol/mgp
  Aorta CE-OH: 0.17 ± 0.08 nmol/mgp
  Aorta LOOH: 0.080 nmol/mgp
  Aorta Total coenzyme Q: 139 ± 57 pmol/mgp
  Aorta Ubiquinone-9: 114 ± 47 pmol/mgp
  Aorta Ubiquinone-10: 25 ± 10 pmol/mgp
  Aorta α-Tocopherol: 380 pmol/mgp
  Aorta α-Tocopherylquinone: 30 ± 2 pmol/mgp
[1]; high fat diet with 1% probucol, aorta
  Aorta C (cholesterol): 173 ± 60 nmol/mgp
[1]; [5]
  Aortic CE-OH/LH (× 10^3): 12.5 ± 6.7 × 10^3
  Aortic LOOH/LH (× 10^3): 4.4^a × 10^3
[1]; per protein, 1% probucol
  decrease of aortic concentration of C vs controls: 5.6 fold
  decrease of aortic concentration of total CoQ vs controls: 2.5 fold
  decrease of aortic concentration of vitamin E vs controls: 2.9 fold
[2]
  decrease of plasma vitamin E vs controls: ~4 fold
  increase of plasma ascorbate vs controls: ~1.4 fold
[2]; plasma
  Plasma Ascorbate: 129.2 µM
  Plasma C18:2: 1.3 ± 0.8 mM
  Plasma C20:4: 0.2 ± 0.2 mM
  Plasma C (cholesterol): 2.6 ± 1.2 mM
  Plasma CE-OH: 0.0002 mM
  Plasma Total coenzyme Q: 0.4 µM
  Plasma Triglycerides: 0.4 ± 0.0 mM
  Plasma Ubiquinol-10: 0.01 ± 0.02 µM
  Plasma Ubiquinone-9: 0.3 ± 0.1 µM
  Plasma Ubiquinone-10: 0.1 ± 0.1 µM
  Plasma α-Tocopherol: 10.5 ± 3.50 µM
[3]; HDL fraction, 1% probucol
  HDL -TOH: 1.4
  HDL C: 0.12
  HDL C18:2: 531
  HDL C20:4: 24.0
  HDL Total CoQ: 0.1
[3]; LDL fraction, 1% probucol
  LDL -TOH: 7.8
  LDL C: 0.96
  LDL C18:2: 388
  LDL C20:4: 50.4
  LDL Total CoQ: 0.4
[3]; VLDL fraction, 1% probucol
  VLDL -TOH: 0.56
  VLDL C18:2: 340
  VLDL C20:4: 17.5
  VLDL Total CoQ: 0.1
[3]; VLDL fraction, pooled plasma, 1% w/w probucol
  VLDL C: 0.65
[3]; VLDL of pooled plasma, 1% probucol
  content of C in VLDL, % of the control value: 25%

## CC(C)(C)c1cc(-c2cc(C(C)(C)C)c(O)c(C(C)(C)C)c2)cc(C(C)(C)C)c1O [Bisphenol, bisphenol]
[4]
  lesion size (intimal volume, descending thoracic aorta) vs age-matched controls: substantially decreased
